Assay results reported in paper PMC6897945, “CytA, a reductase in the cytorhodin biosynthesis pathway, inactivates anthracycline drugs in Streptomyces” (Communications Biology, 2019).

How the values were obtained:
[1] = tested on: MCF-7 human breast adenocarcinoma cell line; assay: Cytotoxic activity, MTT method; assay type: cell-based; settings: MCF7, read-out: Cytotoxic activities IC50, MCF-7
Description: (§1) All data were obtained in triplicate and are presented as means.

[2] = tested on: HeLa human cervical carcinoma cell line; assay: Cytotoxic activity, MTT method; assay type: cell-based; settings: read-out: Cytotoxic activities IC50, HeLa
Description: as §1

[3] = tested on: A549 human lung cancer cell line; assay: Cytotoxic activity, MTT method; assay type: cell-based; settings: A549, read-out: Cytotoxic activities IC50, A549
Description: as §1

[4] = tested on: MDA-MB-231 human triple negative breast adenocarcinoma cell line; assay: Cytotoxic activity, MTT method; assay type: cell-based; settings: MDA-MB-231, read-out: Cytotoxic activities IC50, MDA-MB-231
Description: as §1

[5] = tested on: RKO human colorectal carcinoma cell line; assay: Cytotoxic activity, MTT method; assay type: cell-based; settings: read-out: Cytotoxic activities IC50, RKO
Description: as §1

[6] = tested on: HepG2 human hepatocellular carcinoma cell line; assay: Cytotoxic activity, MTT method; assay type: cell-based; settings: HepG2, read-out: Cytotoxic activities IC50, HepG2
Description: as §1

CytA = assay: Enzyme kinetics of CytA (formation of deglycosylation products, anaerobic); assay type: biochemical, Streptomyces sp. SCSIO 1666; settings: for fold more efficient CytA processing than for 22–26: relative to clinical anthracyclines 22–26; for Km / kcat: substrate of CytA, 0.5 μM CytA, 20 μM NADH, anaerobic
Protocol: Enzymatic reactions were carried out under anaerobic conditions in an anaerobic workstation (Don Whitley Scientific A45) containing a gas phase of N2/H2/CO2 (80:10: 10%, by vol.). ^1H, ^13C, and 2D (COSY, HMQC, HMBC and NOESY) NMR spectra were recorded at 25 °C with an Avance 700 MHz spectrometer instruments (Bruker). High-resolution mass spectra were obtained with a Maxis quadrupole-time-of-flight mass spectrometer (Bruker).
To validate the in vitro biochemical activities of CytA, we overexpressed and purified this enzyme as a soluble N-terminally His6-tagged protein from E. coli (Fig. 2a). Tris-Cl buffer was made O2 free by boiling, followed by cooling under N2 flow; NADH stock solution (dissolved in Tris-Cl), substrate stock solution (dissolved in DMSO), and enzyme solution (dissolved in Tris-Cl supplemented with 10% glycerin) were subjected to O2 eliminating process in the anaerobic workstations for at least two cycles (40 min for one cycle). CytA enzymatic activity was tested in 50 μL volume containing 50 mM Tris-Cl (pH 8.0), 25 μM substrate, 0.5 μM CytA, and 20 μM NADH, at 37 °C for 30 min. The reaction was quenched with the addition to 2 volumes MeOH. After centrifugation to remove protein, supernatants were analyzed with Agilent HPLC equipment using a Phenomenex Prodigy ODS column S5 (150 × 4.60 mm, 5 μ) and UV detection at 254 and 500 nm. Samples were eluted with a gradient elution of phase A containing 0.1% TFA in ddH2O and phase B containing 100% acetonitrile, at a flow rate of 1 mL/min.
Kinetic analyses of CytA with putative substrates 6–10, daunorubicin, doxorubicin, idarubicin, epirubicin and pirarubicin, involved a reaction volume of 20 μL consisting of 50 mM Tris-Cl (pH 8.0), 0.5 μM CytA, 20 μM NADH, […]
All assays were performed in triplicate and Km and Vmax values were calculated on the basis of curve fitting to the Michaelis-Menten equation: v = Vmax *[S]/(Km + [S]) (Supplementary Fig. 7).
For kinetics of CytA, Origin 9.0 (OriginLab Co.) was used to analyze on the basis of curve fitting to the Michaelis-Menten equation. Experiments were performed in triplicate independently. For antibacterial activity, experiments were performed in triplicate using 96-well plates.

MDA-MB-468 cells = settings: read-out: IC50 against MDA-MB-468 cells; cited from earlier work

CC[C@@]1(O)C[C@H](O[C@H]2C[C@H](N(C)C)[C@H](O[C@H]3C[C@H](O)[C@H](O[C@H]4CC[C@H](O)[C@H](C)O4)[C@H](C)O3)[C@H](C)O2)c2c(O)c3c(c(O)c2[C@H]1O[C@H]1C[C@H](N(C)C)[C@H](O[C@H]2C[C@H](O)[C@H](O[C@H]4CC[C@H](O)[C@H](C)O4)[C@H](C)O2)[C@H](C)O1)C(=O)c1cccc(O)c1C3=O [Compound 7, cosmomycin D]
IC50 [1]: 510 nM
IC50 [2]: 110 nM
IC50 [3]: 19 nM
IC50 [4]: 660 nM
IC50 [5]: 99 nM
IC50 [6]: 31 nM
fold more efficient CytA processing than for 22–26 (CytA): 2–3 fold
Km (CytA): 17.9 µM
kcat (CytA): 0.0132 s⁻¹

CC[C@@]1(O)C[C@H](O[C@H]2C[C@H](N(C)C)[C@@H](O[C@H]3C[C@H](O)[C@@H](O[C@H]4CC[C@H](O)[C@H](C)O4)[C@H](C)O3)[C@H](C)O2)c2c(O)c3c(c(O)c2[C@H]1O[C@H]1C[C@H](N(C)C)[C@@H](O[C@H]2CC[C@H](O[C@H]4CC[C@H](O)[C@H](C)O4)[C@H](C)O2)[C@H](C)O1)C(=O)c1cccc(O)c1C3=O [Compound 6, cosmomycin C]
IC50 [1]: 270 nM
IC50 [2]: 17 nM
IC50 [3]: 35 nM
IC50 [4]: 640 nM
IC50 [5]: 17 nM
IC50 [6]: 24 nM
fold more efficient CytA processing than for 22–26 (CytA): 2–3 fold
Km (CytA): 14.3 µM
kcat (CytA): 0.0118 s⁻¹
IC50 (MDA-MB-468 cells): 210 nM
